Assay results from patent publication US4237141A, “Derivatives of α-methyl-β-aminopropiophenone and use thereof” (priority 1977, dated 1980).
pEC50: −log10 of the molar value.

Key:
[1] = tested on: canine femoral arterial preparation; experiment: Vasodilating action in the canine anesthetized femoral arterial preparation (close arterial injection); format: in vivo
Text: (§1) Reference will now be made to pharmacological effects of the compounds according to the present invention.
(§2) (1) Relaxant action on the guinea-pig isolated tracheal smooth muscles and the vasodilating action on the canine anesthetized femoral arterial preparation were employed to compare the pharmacological effects of each of the compounds.

[2] = tested on: guinea-pig isolated tracheal smooth muscles; experiment: Relaxant action on guinea-pig isolated tracheal chain contracted by histamine; details: for pEC50: Cavia porcellus, contracted by 10^-4 M histamine, read-out: A: 50% effective amount for the guinea-pig isolated tracheal smooth muscles (50% relaxation); for B/A: selectivity to tracheal smooth muscles: based on reference B/A value 1 for isoproterenol, B from canine femoral artery
Text: as §1, §2

[3] = tested on: β-adrenoceptor; experiment: Relaxant action on guinea-pig isolated trachea in the presence of propranolol (β-adrenoceptor involvement); details: histamine 10^-4 M; propranolol 2.5×10^-5 M; FIGS. 1-4
Text: as §2
Histamine (10^-4 M in the bath medium) was applied to the guinea-pig isolated tracheal preparation to contract the muscles, and the effect of the above compounds to inhibit the contraction (%) was plotted along the ordinate on each of the points for concentration which were connected by a solid line into a curve. Then, the dose-response curve for the compound in the presence of propranolol (2.5×10^-5 M) was obtained and plotted in a dotted line.

[4] = Acute toxicity, intraperitoneal injection in mice; details: mouse, in vivo, ip; intraperitoneal injection to mice; read-out: F: Approx. LD50 value
Method: Another experiment was also conducted using mice as an index for the acute toxicity to the whole body.
Approx. LD50 value on intraperitoneal injection for mice was determined.

[5] = tested on: canine blood-perfused tracheal preparation; experiment: Canine blood-perfused tracheal preparation in situ: intraluminal pressure decrease and perfused-blood flow increase; format: in vivo; details: for D/C × 10: selectivity: based on reference D/C value 1 for isoproterenol; for C: dose required for 20 cm H2O decrease in the tracheal intraluminal pressure (bronchodilator action) / D: dose required for 5 ml/min increase in the perfused-blood flow (vasodilator action): canine blood-perfused tracheal preparation in situ
Method: as §1
The bronchodilator action was represented by a dose (C), μg, of a compound required for decreasing the intraluminal pressure by 20 cm H2 O and the vasodilator action was represented by a dose (D), μg, of the compound required for increasing the perfused-blood flow by 5 ml/min.

Structure (SMILES) | B: dose required for 30 ml/min increase in the perfused-blood flow (vasodilator action) [1] | pEC50 [2] | B/A: selectivity to tracheal smooth muscles [2] | difference between dose-response curves without and with propranolol (inhibition of histamine contraction) [3] | LD50 [4] | D/C × 10: selectivity [5] | C: dose required for 20 cm H2O decrease in the tracheal intraluminal pressure (bronchodilator action) [5] | D: dose required for 5 ml/min increase in the perfused-blood flow (vasodilator action) [5]
CC(CN1CCCCC1)C(=O)c1ccc([S+](C)[O-])cc1 (centres unmarked) [Compound 4, 1-(4-methylsulfinylphenyl)-3-piperidino-2-methylpropanone-1] | 800 µg | 3.52 | 3 | – | – | – | – | –
CC[S+]([O-])c1ccc(C(=O)C(C)CN2CCCCC2)cc1 (centres unmarked) [Compound 10] | 700 µg | 3.70 | 4 | – | – | – | – | –
CC(CN1CCCCC1)C(=O)c1ccc(S(C)(=O)=O)cc1 (centres unmarked) [Compound 16, 1-(4-methylsulfonylphenyl)-3-piperidino-2-methylpropanone-1] | 750 µg | 4.22 | 12 | no substantial difference | – | – | – | –
CCS(=O)(=O)c1ccc(C(=O)C(C)CN2CCCCC2)cc1 (centres unmarked) [Compound 22, 1-(4-ethylsulfonylphenyl)-3-piperidino-2-methylpropanone-1] | 580 µg | 4.22 | 9 | – | – | – | – | –
CCSc1ccc(C(=O)C(C)CN2CCOCC2)cc1 (centres unmarked) [Compound 25, 1-(4-ethylthiophenyl)-3-morpholino-2-methylpropanone-1] | 100 µg | 4.00 | 1 | – | 200 mg/kg | – | – | –
CCCC[S+]([O-])c1ccc(C(=O)C(C)CN2CCCCC2)cc1 (centres unmarked) [Compound 28, 1-(4-butylsulfinylphenyl)-3-piperidino-2-methylpropanone-1] | 460 µg | 4.22 | 8 | – | – | – | – | –
CCSc1ccc(C(=O)C(C)CN2CCCCC2)cc1 (centres unmarked) [Compound 29, 1-(4-ethylthiophenyl)-3-piperidino-2-methylpropanone-1] | 180 µg | 5.70 | 90 | no substantial difference | – | 7 | 109 µg | 77 µg
CCCCS(=O)(=O)c1ccc(C(=O)C(C)CN2CCCCC2)cc1 (centres unmarked) [Compound 36, 1-(4-butylsulfonylphenyl)-3-piperidino-2-methylpropanone-1] | 360 µg | 4.70 | 18 | – | – | 3 | 333 µg | 100 µg
CCSc1ccc(C(=O)C(C)CN2CCCC2)cc1 (centres unmarked) [Compound 37] | 175 µg | 4.52 | 6 | – | 200 mg/kg | – | – | –
CC(CN1CCCCC1)C(=O)c1ccc(S(=O)(=O)c2ccccc2)cc1 (centres unmarked) [Compound 42, 1-(4-phenylsulfonylphenyl)-3-piperidino-2-methylpropanone-1] | 175 µg | 4.70 | 9 | – | – | – | – | –
CSc1ccc(C(=O)C(C)CN(C)C)cc1 (centres unmarked) [Compound 48, 1-(4-methylthiophenyl)-3-dimethylamino-2-methylpropanone-1] | 100 µg | 5.22 | 17 | – | – | – | – | –
CSc1ccc(C(=O)C(C)CN2CCCC2)cc1 (centres unmarked) [Compound 50] | 43 µg | 5.22 | 7 | – | – | – | – | –
CSc1ccc(C(=O)C(C)CN2CCCCC2)cc1 (centres unmarked) [Compound 51, 1-(4-methylthiophenyl)-3-piperidino-2-methylpropanone-1] | 240 µg | 5.22 | 40 | no substantial difference | – | 8 | 62.5 µg | 50 µg
CSc1ccc(C(=O)C(C)CN2CCN(C)CC2)cc1 (centres unmarked) [Compound 53] | 430 µg | 3.70 | 2 | – | – | – | – | –
CCSc1ccc(C(=O)C(C)CN(C)C)cc1 (centres unmarked) [Compound 54] | 350 µg | 4.22 | 6 | – | 200 mg/kg | – | – | –
CCSc1ccc(C(=O)C(C)CN(CC)CC)cc1 (centres unmarked) [Compound 55] | 270 µg | 4.22 | 5 | – | 200 mg/kg | – | – | –
CC(C)NCC(O)c1ccc(O)c(O)c1 (centres unmarked) [isoproterenol, reference compound] | 0.0053 µg | 8.30 | – | – | – | – | 0.1 µg | 0.01 µg
CC(C)(C)NCC(O)c1ccc(O)c(CO)c1 (centres unmarked) [salbutamol] | – | – | – | – | – | 2 | 2 µg | 0.4 µg
CC(C)(C)NCC(O)c1cc(O)cc(O)c1 (centres unmarked) [terbutaline] | – | – | – | – | – | 4 | 0.5 µg | 0.2 µg
COc1cc(CC2NCCc3cc(O)c(O)cc32)cc(OC)c1OC (centres unmarked) [trimetoquinol] | – | – | – | – | – | 2.5 | 0.2 µg | 0.05 µg
